The values below come from article PMC10758121, “Miconazole-like Scaffold is a Promising Lead for Naegleria fowleri-Specific CYP51 Inhibitors” (Journal of Medicinal Chemistry, 2023).

Like-named read-outs stand apart in the source and are kept apart here. Some results are limits rather than exact numbers.

The nature of series [1]: Single-dose PK experiment of 2a. As to conditions: for concentration at 30 min: intraperitoneal, 20 mg/kg.
In a further series the target is NfCYP51 (Naegleria fowleri, UniProt A0A2H4A2U9). Nature of the series: biochemical. The series is classed as binding.
For series [2] the following is noted: cited from earlier work.
Series [3] has as its system N. fowleri European KUL strain. Nature of the series: Primary phenotypic organism-based screen at 10 μM (384-well). The series is classed as cell-based. To be noted: Naegleria fowleri.
Series [4] concerns N. fowleri European KUL strain. The experiment in a line: Naegleria cell-based assay, dose–response (CellTiter-Glo viability, 48 h).
Procedure: The compounds were screened against N. fowleri European KUL strain axenically cultured in Nelson’s medium supplemented with 10% fetal bovine serum at 37 °C.[59] The screening assay in 96- and 384-well formats (Z’-value of 0.95 ± 0.1) was performed as described elsewhere.[9] All the experiments were performed using trophozoites harvested during the logarithmic phase of growth.[60] The primary screen was performed in duplicate at 10 μM in a 384-well format (2,500 amoebae/well). The dose–response curves were generated in triplicate for the follow up compounds by serial dilution of compounds from 50 to 0.39 μM in a 96-well plate with 10,000 amoebae/well. Assay plates were incubated for 48 h at 37 °C, and cell viability was determined by a CellTiter-Glo Luminescent Cell Viability Assay.[9],[58]
The nature of a further series: in vivo. To be noted: female, C57BL/6, mouse, ip, 40 mg/kg. On the procedure:
All mice were maintained on a 12 h light/dark cycle in a temperature-controlled environment with access to food and water ad libitum. […] Mice were sacrificed 1 h following the drug administration, and blood and brain samples were collected. Blood (100 μL) was quickly added with 5-fold H2O/CH3CN 8:2, centrifugated to 2500 rpm for 15 min, and plasma was collected. Brain was homogenized in 0.5 mL of distilled water and added with 2 mL of CH3CN. Thus, homogenates were centrifugated to 2500 rpm for 15 min and the supernatants were collected. Plasma and brain supernatants were stored at −20 °C until analysis.
All experiments involving animals were carried out according to Sapienza University’s Ethics Committee, approval code 890/2021-PR, approved on 17 November 2021. Animal care followed the IASP and European Community (EC L358/1, 18/12/86) guidelines on using and protecting animals in experimental research. Eight week-old female C57BL/6 mice were used for the experiments (Charles River, Lecco, Italy).
The targeted analysis was performed by a Waters system composed of a 1525 μ HPLC (Milford, MA, USA), coupled with a Quattro Micro Tandem MS/MS with an ESI source (Micromass, Manchester UK), using a Supelco Ascentis Express C18 (15 cm × 2.1 mm) 2.7 μm analytical column, A (deionized water/formic acid 0.02%) and B (acetonitrile/formic acid 0.02%) as mobile phase, with the following optimized elution binary gradient with linear interpolation: 0–1 min, 30% B; 1–16 min, 45% B; 16–17 min, 45% B; 17–18 min, 30% B; 18–38 min, 30% B to equilibrate the column, flow rate 0.20 mL min^–1. […] Data acquisition, data handling, and instrument control were performed by MassLynx Software 4.1 v (Data Handling System for Windows, Micromass, UK).
Calibration curves were calculated with equal weighted least-squares linear regression analysis of the MRM peak area against the standard nominal concentration. […] The matrix effect (ME) for each compound, in brain (B) and in plasma (P), was evaluated by comparing the matrix-matching calibration curve (2.5, 10, 25, and 50 ng mL^–1) with the corresponding calibration curve.[65]
The biological samples were appropriately diluted with the mobile phase (A:B, 70:30, v:v), filtered at 0.22 μm, and analyzed in triplicate (25 μL injected).

Series [5] concerns N. fowleri European KUL strain. As to conditions: amoebicidal effect; cited from earlier work.
The test system of the next series is Naegleria. As to conditions: mouse model of PAM, 20 mg/kg dose; cited from earlier work.
Setting [6] is: 0.5 μM NfCYP51, inhibitor 0.025–0.5 μM, ≤ values estimated from linear dependence of binding, read-out: KD.
Setting [7] is: 10 µM, supplement CSV, read-out: % Inhibition at 10 µM against N. fowleri KUL strain.
Setting [8] is: Table S1, mean of two biological duplicates, read-out: % Inhibition at 10 µM.
Setting [9] is: concentration for 50% growth inhibition from dose–response curves, triplicate, axenically cultured N. fowleri trophozoites.
[10] abbreviates: average brain distribution coefficient (brain/plasma ratio).

Chain of NfCYP51 (A0A2H4A2U9 entry or part of it): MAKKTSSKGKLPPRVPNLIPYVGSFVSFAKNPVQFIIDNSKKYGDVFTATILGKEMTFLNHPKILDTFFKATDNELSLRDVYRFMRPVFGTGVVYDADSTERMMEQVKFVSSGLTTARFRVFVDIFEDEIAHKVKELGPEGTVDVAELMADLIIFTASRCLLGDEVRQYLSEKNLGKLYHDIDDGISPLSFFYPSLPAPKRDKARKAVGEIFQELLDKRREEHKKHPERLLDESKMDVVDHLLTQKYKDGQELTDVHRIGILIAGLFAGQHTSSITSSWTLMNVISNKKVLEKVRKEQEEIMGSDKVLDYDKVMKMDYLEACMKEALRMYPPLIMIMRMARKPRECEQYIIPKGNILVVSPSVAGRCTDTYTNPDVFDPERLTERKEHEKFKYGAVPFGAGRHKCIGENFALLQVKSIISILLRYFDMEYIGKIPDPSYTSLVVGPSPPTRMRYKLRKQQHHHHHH

For `O=C(O)c1cccc(C(F)(F)F)c1` [3-trifluoro benzoic acid], the “circulating metabolite of 2a” value in series [1] (after 2a 20 mg/kg intraperitoneally) is on record as “one of the main circulating metabolites for up to 24 h”.
By Kd is commonly meant the constant that tells how readily two partners part at equilibrium. Regarding `Clc1ccc(COC(Cn2ccnc2)c2ccc(Cl)cc2Cl)c(Cl)c1` (centres unmarked) [Compound 1, miconazole], the Kd at NfCYP51 is no more than 0.005 µM. Also, the elimination half-life in series [2] is on record as 24 h.
For orientation: inhibition means the share of the control response that was lost under treatment. As for `O=C(OC(Cn1ccnc1)c1ccc(F)cc1)c1cccc(C(F)(F)F)c1` (centres unmarked) [Compound 2a], at NfCYP51 (setting [6]), the Kd was 0.088 ± 0.004 µM. The inhibition at 10 µM was roughly 50% in series [3] (read-out: % inhibition at 10 μM, 10 μM, N. fowleri KUL strain); 51.5 ± 13.4% in series [3] (setting [7]); 51.5 ± 13.4% in series [3] (setting [8]). Besides, the concentration at 30 min turned out to be 100 ng/g in series [1] (brain) and 4 ng/mL in series [1] (plasma).
Regarding `O=C(OC(Cn1ccnc1)c1ccccc1)c1cccc(C(F)(F)F)c1` (centres unmarked) [Compound 2c], the inhibition at 10 µM in series [3] (setting [7]) and in series [3] (setting [8]) was 53.5 ± 6.4% in each case.
Regarding `O=C(Nc1ccc(N2CCN(c3ccc(Cl)cc3)CC2)cc1)OC(Cn1ccnc1)c1ccc(F)cc1` (centres unmarked) [Compound 2d], the inhibition at 10 µM in series [3] (setting [7]) and in series [3] (setting [8]) was 66.5 ± 3.5% each time.
As for `COc1ccc(CC(c2ccc(OC)cc2)n2ccnc2)cc1` (centres unmarked) [Compound 2e], the inhibition at 10 µM in series [3] (setting [7]) and in series [3] (setting [8]) was 49.5 ± 6.4% throughout.
In the case of `COc1ccc(C(Cc2ccc(Cl)cc2)n2ccnc2)cc1` (centres unmarked) [Compound 2f], the inhibition at 10 µM in series [3] (setting [7]) and in series [3] (setting [8]) was 54.5 ± 0.7% throughout.
Take `Clc1ccc(C(c2ccn(-c3ccc(Cl)cc3)c2)n2ccnc2)cc1` (centres unmarked) [Compound 2g]: the inhibition at 10 µM in series [3] (setting [7]) and in series [3] (setting [8]) was 47 ± 7.1% each time.
On to `Clc1ccc(-n2ccc(C(c3ccccc3)n3ccnc3)c2)cc1` (centres unmarked) [Compound 2h], for which the inhibition at 10 µM in series [3] (setting [7]) and in series [3] (setting [8]) was 49 ± 9.9% each time.
For the compound `COc1ccc(C(Cc2ccc(-n3cccc3)cc2)n2ccnc2)cc1` (centres unmarked) [Compound 2i], the inhibition at 10 µM in series [3] (setting [7]) and in series [3] (setting [8]) was 37.5 ± 30.4% throughout.
As to `COc1ccc([C@H](Cn2ccnc2)OC(=O)c2cccc(C(F)(F)F)c2)cc1` [Compound 3a, (R)-2-(1H-Imidazol-1-yl)-1-(4-methoxyphenyl)ethyl 3-(Trifluoromethyl)benzoate], in series [4] (read-out: % inhibition at 50 μM), the inhibition at 50 µM came to 69%.
For orientation: EC50 means the midpoint of the concentration-response curve. With `COc1ccc([C@@H](Cn2ccnc2)OC(=O)c2cccc(C(F)(F)F)c2)cc1` [Compound 3b, (S)-2-(1H-Imidazol-1-yl)-1-(4-methoxyphenyl)ethyl 3-(Trifluoromethyl)benzoate], the EC50 in series [4] (setting [9]) turned out to be 24 ± 0.9 µM; in series [4] (supplement CSV), 24.8 ± 0.9 µM.
On to `O=C(O[C@@H](Cn1ccnc1)c1ccc(F)cc1)c1cc(Cl)cc(Cl)c1` [Compound 4a, (R)-1-(4-Fluorophenyl)-2-(1H-imidazol-1-yl)ethyl 3,5-Dichlorobenzoate], for which, in series [4] (setting [9]), the midpoint of the response, the EC50, lay at 21.5 ± 0.04 µM.
Compound `O=C(O[C@H](Cn1ccnc1)c1ccc(F)cc1)c1cc(Cl)cc(Cl)c1` [Compound 4b, (S)-1-(4-Fluorophenyl)-2-(1H-imidazol-1-yl)ethyl 3,5-Dichlorobenzoate] yielded an EC50 in series [4] (setting [9]) of 4.8 ± 0.05 µM.
`O=C(O[C@@H](Cn1ccnc1)c1ccc(Cl)cc1Cl)c1cccc(C(F)(F)F)c1` [Compound 5a, (R)-1-(2,4-Dichlorophenyl)-2-(1H-imidazol-1-yl)ethyl 3-(Trifluoromethyl)benzoate]: the Kd on NfCYP51 (setting [6]) is 0.161 ± 0.008 µM. Besides, in series [4] (setting [9]), the response was half-maximal at 10.2 ± 0.03 µM (EC50).
With `O=C(O[C@H](Cn1ccnc1)c1ccc(Cl)cc1Cl)c1cccc(C(F)(F)F)c1` [Compound 5b, (S)-1-(2,4-Dichlorophenyl)-2-(1H-imidazol-1-yl)ethyl 3-(Trifluoromethyl)benzoate], on NfCYP51 (setting [6]), the Kd is 0.07 ± 0.002 µM. The compound also had an EC50 in series [4] (setting [9]) of 4.3 ± 0.05 µM.
As for `O=C(O[C@H](Cn1ccnc1)c1ccc(Cl)cc1Cl)c1ccc(Cl)cc1Cl` [Compound 6b, (S)-1-(2,4-Dichlorophenyl)-2-(1H-imidazol-1-yl)ethyl 2,4-Dichlorobenzoate], the Kd on NfCYP51 (setting [6]) is no more than 0.005 µM. Besides, the EC50 in series [4] (setting [9]) was found to be 2.6 ± 0.03 µM.
With `O=C(O[C@H](Cn1cncn1)c1ccc(F)cc1)c1cccc(C(F)(F)F)c1` [Compound 7, (S)-1-(4-Fluorophenyl)-2-(1H-1,2,4-triazol-1-yl)ethyl 3-(Trifluoromethyl)benzoate], the Kd on NfCYP51 (setting [6]) is 0.087 ± 0.01 µM. Besides, the EC50 in series [4] (setting [9]) was determined as 20.6 ± 0.04 µM.
The term Kp denotes the ratio of the level in a tissue or fluid to that in plasma or blood. On to `Fc1ccc([C@@H](Cn2ccnc2)OCc2cc(Cl)cc(Cl)c2)cc1` [Compound 8b, (S)-1-(2-((3,5-Dichlorobenzyl)oxy)-2-(4-fluorophenyl)ethyl)-1H-imidazole], for which the Kd on NfCYP51 (setting [6]) was 0.007 ± 0.002 µM. In addition, the “brain/plasma (B/P)” value in the series “in vivo” (1 h) stood at 0.35. For the same compound, the Kp at 1 h in the series “in vivo” (setting [10]) amounted to 0.43 ± 0.08; in “in vivo” (brain/plasma (B/P)) it was 0.51. In addition, a half-maximal response in series [4] (setting [9]) (EC50) required 2.4 ± 0.04 µM.
Take `FC(F)(F)c1cccc(CO[C@H](Cn2ccnc2)c2ccc(Cl)cc2Cl)c1` [Compound 9b, (S)-1-(2-(2,4-Dichlorophenyl)-2-((3-(trifluoromethyl)benzyl)oxy)ethyl)-1H-imidazole]: the Kd on NfCYP51 (setting [6]) was no more than 0.005 µM. Further, the “average brain distribution coefficient (brain/plasma ratio)” value in “in vivo” (1 h) is roughly 1. The “brain/plasma (B/P)” value in “in vivo” (1 h) worked out at 1.14. The Kp at 1 h is 1.02 ± 0.12 in “in vivo” (setting [10]) and 0.89 in “in vivo” (brain/plasma (B/P)). In series [4] (setting [9]), this compound returned an EC50 of 1.5 ± 0.02 µM.
With `Clc1cc(Cl)cc(CO[C@H](Cn2ccnc2)c2ccc(Cl)cc2Cl)c1` [Compound 10b, (S)-1-(2-((3,5-Dichlorobenzyl)oxy)-2-(2,4-dichlorophenyl)ethyl)-1H-imidazole], at NfCYP51 (setting [6]), the Kd was no more than 0.005 µM. In series [4] (setting [9]), this compound came in with a concentration giving a half-maximal response (EC50) of 3.5 ± 0.01 µM.
As to `OC(Cn1cncn1)(Cn1cncn1)c1ccc(F)cc1F` [Fluconazole, fluconazole, reference compound], at NfCYP51 (setting [6]), the Kd was 0.141 ± 0.021 µM.
Consider `CC[C@@H]([C@H](C)O)n1ncn(-c2ccc(N3CCN(c4ccc(OC[C@@H]5CO[C@@](Cn6cncn6)(c6ccc(F)cc6F)C5)cc4)CC3)cc2)c1=O` [Posaconazole], for which the EC50 in series [5] is no more than 0.01 µM. In addition, in the series on Naegleria, the mice cured result is given as “two of six mice cured”.
For `CCC(C)n1ncn(-c2ccc(N3CCN(c4ccc(OCC5COC(Cn6cncn6)(c6ccc(Cl)cc6Cl)O5)cc4)CC3)cc2)c1=O` (centres unmarked) [itraconazole], in series [5], the EC50 is no more than 0.01 µM.
